Source: patent US11339130B1 (Blade Therapeutics, Inc., priority 2016, dated 2022)

Tests used:
Type in all cases: biochemical
[1] = target: T1, Human Calpain 1/NS1 (Homo sapiens, UniProt P07384); test: Calpain inhibition continuous fluorescence (FRET) assay, Human Calpain 1/NS1; settings: Column A; read-out: Human Calpain 1/NS1 IC50
T1 sequence (P07384 1-714): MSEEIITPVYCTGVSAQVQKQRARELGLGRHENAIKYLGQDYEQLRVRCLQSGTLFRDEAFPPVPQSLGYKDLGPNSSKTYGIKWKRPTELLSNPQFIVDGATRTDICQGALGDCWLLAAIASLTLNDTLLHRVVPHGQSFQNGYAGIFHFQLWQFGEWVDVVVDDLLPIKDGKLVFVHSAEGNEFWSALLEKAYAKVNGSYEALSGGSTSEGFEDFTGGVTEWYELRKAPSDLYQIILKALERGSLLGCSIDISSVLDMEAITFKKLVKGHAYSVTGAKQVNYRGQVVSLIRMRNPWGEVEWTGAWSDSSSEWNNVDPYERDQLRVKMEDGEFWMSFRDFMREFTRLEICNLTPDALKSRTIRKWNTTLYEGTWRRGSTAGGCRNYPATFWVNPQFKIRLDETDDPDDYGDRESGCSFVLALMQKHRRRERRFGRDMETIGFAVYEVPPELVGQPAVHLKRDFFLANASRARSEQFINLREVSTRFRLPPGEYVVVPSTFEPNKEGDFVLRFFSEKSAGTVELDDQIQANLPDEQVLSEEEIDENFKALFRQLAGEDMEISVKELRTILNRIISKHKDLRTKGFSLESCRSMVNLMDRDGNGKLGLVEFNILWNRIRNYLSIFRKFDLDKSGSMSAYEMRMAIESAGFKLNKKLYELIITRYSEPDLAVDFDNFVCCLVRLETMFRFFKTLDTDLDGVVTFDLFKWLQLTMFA
T1 sequence (P04632 1-268 partner): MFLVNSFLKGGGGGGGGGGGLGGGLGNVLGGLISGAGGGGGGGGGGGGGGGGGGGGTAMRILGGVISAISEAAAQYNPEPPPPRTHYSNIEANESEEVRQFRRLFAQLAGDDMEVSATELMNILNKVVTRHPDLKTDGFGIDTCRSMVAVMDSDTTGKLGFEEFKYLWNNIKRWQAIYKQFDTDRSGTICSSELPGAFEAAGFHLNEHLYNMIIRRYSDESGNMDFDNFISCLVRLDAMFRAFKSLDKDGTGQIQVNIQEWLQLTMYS
Procedure: (§1) Calpain 1, 2, and 9 activity and inhibition thereof was assessed by means of a continuous fluorescence assay. The SensoLyte 520 Calpain substrate (Anaspec Inc) was optimized for detecting calpain activity. This substrate contains an internally quenched 5-FAM/QXL™ 520 FRET pair. Calpains 1, 2, and 9 cleave the FRET substrate into two separate fragments resulting in an increase of 5-FAM fluorescence that is proportional to calpain activity
(§2) Assays were typically setup in black 384-well plates using automated liquid handling as follows. Calpain assay base buffer typically contains 50 mM Tris, pH 7.5, 100 mM NaCl and 1 mM DTT. Inhibitors were serially diluted in DMSO and used to setup 2× mixtures with calpains in the aforementioned buffer. After incubation at ambient temperature (25C), the reaction was initiated by adding a 2× mix of the fluorescent peptide substrate and CaCl2) (required for in-situ calpain activation) in the same buffer. Reaction progress curve data were typically collected for 10 min using excitation/emission wavelengths of 490 nm/520 nm on SpectraMax i3× or the FLIPR-Tetra plate readers (Molecular Devices Inc). Reaction rates were calculated from progress curve slopes typically over 1-5 min. Dose response curves (rate vs. log inhibitor concentration) were typically fit to a 4-parameter logistic function to extract IC50 values.

[2] = target: T2, Human Calpain 9/NS1 (Homo sapiens, UniProt O14815); test: Calpain inhibition continuous fluorescence (FRET) assay, Human Calpain 9/NS1; settings: Column C; read-out: Human Calpain 9/NS1 IC50
T2 sequence (O14815 1-690): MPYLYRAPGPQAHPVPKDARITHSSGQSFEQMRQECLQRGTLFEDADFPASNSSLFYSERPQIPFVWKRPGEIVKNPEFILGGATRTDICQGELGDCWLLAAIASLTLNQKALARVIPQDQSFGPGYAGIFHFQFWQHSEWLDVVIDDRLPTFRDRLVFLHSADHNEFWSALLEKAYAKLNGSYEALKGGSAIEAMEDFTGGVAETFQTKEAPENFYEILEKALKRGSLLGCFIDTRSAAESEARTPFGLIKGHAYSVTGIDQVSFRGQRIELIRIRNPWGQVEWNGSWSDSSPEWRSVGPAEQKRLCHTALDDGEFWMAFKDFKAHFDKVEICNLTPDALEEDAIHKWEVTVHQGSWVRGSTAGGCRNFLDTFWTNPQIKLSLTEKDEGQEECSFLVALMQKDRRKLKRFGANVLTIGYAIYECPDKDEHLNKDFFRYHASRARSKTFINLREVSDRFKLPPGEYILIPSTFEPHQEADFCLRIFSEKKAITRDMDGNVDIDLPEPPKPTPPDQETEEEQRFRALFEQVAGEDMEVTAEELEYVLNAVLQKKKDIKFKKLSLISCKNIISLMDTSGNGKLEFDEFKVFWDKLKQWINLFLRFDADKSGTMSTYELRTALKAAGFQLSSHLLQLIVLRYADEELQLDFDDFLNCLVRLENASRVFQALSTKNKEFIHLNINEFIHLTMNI
T2 sequence (P04632 1-268 partner): T1 sequence (P04632 1-268 partner)
Procedure: as §1, §2

[3] = target: T3, Human Calpain 2/NS1 (Homo sapiens, UniProt P17655); test: Calpain inhibition continuous fluorescence (FRET) assay, Human Calpain 2/NS1; settings: Column B; read-out: Human Calpain 2/NS1 IC50
T3 sequence (P17655 1-700): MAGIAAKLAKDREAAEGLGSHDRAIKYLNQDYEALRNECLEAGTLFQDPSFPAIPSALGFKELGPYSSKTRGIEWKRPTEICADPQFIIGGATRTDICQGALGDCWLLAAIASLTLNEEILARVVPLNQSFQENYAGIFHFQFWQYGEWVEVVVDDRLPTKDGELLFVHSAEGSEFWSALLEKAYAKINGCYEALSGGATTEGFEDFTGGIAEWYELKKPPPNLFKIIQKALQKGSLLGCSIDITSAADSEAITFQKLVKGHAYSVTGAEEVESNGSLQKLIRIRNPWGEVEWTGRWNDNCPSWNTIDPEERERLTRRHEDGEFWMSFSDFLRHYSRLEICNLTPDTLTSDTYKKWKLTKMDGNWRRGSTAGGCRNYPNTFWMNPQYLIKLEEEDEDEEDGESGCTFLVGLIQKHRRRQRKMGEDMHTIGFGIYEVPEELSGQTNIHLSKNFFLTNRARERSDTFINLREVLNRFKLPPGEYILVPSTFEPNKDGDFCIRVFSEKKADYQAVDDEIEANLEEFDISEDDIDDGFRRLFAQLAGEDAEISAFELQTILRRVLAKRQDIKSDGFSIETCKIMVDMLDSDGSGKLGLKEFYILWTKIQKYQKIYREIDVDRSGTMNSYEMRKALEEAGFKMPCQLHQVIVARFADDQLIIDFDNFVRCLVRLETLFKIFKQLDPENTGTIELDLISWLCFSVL
T3 sequence (P04632 1-268 partner): T1 sequence (P04632 1-268 partner)
Procedure: as §1, §2

Row | IC50 [1] [µM] | IC50 [2] [µM] | IC50 [3] [µM] | Compound
1 | > 10 | 3 to 10 | 3 to 10 | Cc1cc(C(=O)N[C@@H](Cc2ccccc2)C(=O)C(N)=O)n(-c2ncccn2)n1 (single isomer, unassigned) [Compound 36]
2 | < 3 | < 3 | < 3 | O=C[C@H](Cc1ccccc1)NC(=O)c1cncn1-c1ccccc1 [Compound 1, (S)—N-(1-oxo-3-phenylpropan-2-yl)-1-phenyl-1H-imidazole-5-carboxamide]
3 | < 3 | < 3 | < 3 | O=C[C@H](Cc1ccccc1)NC(=O)[C@@H]1CCCN1c1nc2ccccc2s1 [Compound 3, (S)-1-(benzo[D]thiazol-2-yl)-N—((S)-1-oxo-3-phenylpropan-2-yl)pyrrolidine-2-carboxamide]
4 | < 3 | < 3 | < 3 | O=C[C@H](Cc1ccccc1)NC(=O)[C@@H]1CCCN1c1nc2ccccc2o1 [Compound 4, (S)-1-(benzo[D]oxazol-2-yl)-N—((S)-1-oxo-3-phenylpropan-2-yl)pyrrolidine-2-carboxamide]
5 | > 10 | 3 to 10 | 3 to 10 | Cc1cc(C(=O)N[C@H](C=O)Cc2ccccc2)nn1-c1ccccc1 [Compound 5]
6 | < 3 | < 3 | < 3 | NC(=O)C(=O)[C@H](Cc1ccccc1)NC(=O)c1cncn1-c1ccccc1 [Compound 7, (S)—N-(4-amino-3,4-dioxo-1-phenylbutan-2-yl)-1-phenyl-1H-imidazole-5-carboxamide]
7 | < 3 | < 3 | < 3 | Cc1cc(C(=O)N[C@H](C=O)Cc2ccccc2)n(-c2ccccc2)n1 [Compound 8, (S)-3-methyl-N-(1-oxo-3-phenylpropan-2-yl)-1-phenyl-1H-pyrazole-5-Carboxamide]
8 | < 3 | < 3 | < 3 | NC(=O)C(=O)[C@H](Cc1ccccc1)NC(=O)c1ccnn1-c1ccccc1 [Compound 10, (S)—N-(4-amino-3,4-dioxo-1-phenylbutan-2-yl)-1-phenyl-1H-pyrazole-5-carboxamide]
9 | < 3 | < 3 | < 3 | NC(=O)C(=O)[C@H](Cc1ccccc1)NC(=O)c1csnc1-c1ccccc1 [Compound 11, (S)—N-(4-amino-3,4-dioxo-1-phenylbutan-2-yl)-3-phenylisothiazole-4-carboxamide]
10 | < 3 | < 3 | < 3 | NC(=O)C(=O)[C@H](Cc1ccccc1)NC(=O)c1scnc1-c1ccccc1 [Compound 18, (S)—N-(4-amino-3,4-dioxo-1-phenylbutan-2-yl)-4-phenyl thiazole-5-carboxamide]
11 | < 3 | < 3 | < 3 | Cc1noc(-c2ccc3c(c2)OCO3)c1C(=O)N[C@@H](Cc1ccccc1)C(=O)C(N)=O [Compound 20, (S)—N-(4-amino-3,4-dioxo-1-phenylbutan-2-yl)-5-(benzo[D][1,3]dioxol-5-yl)-3-methylisoxazole-4-carboxamide]
12 | < 3 | < 3 | < 3 | O=C[C@H](Cc1ccccc1)NC(=O)c1scnc1-n1cc(-c2ccccc2)cn1 [Compound 21, (S)—N-(1-oxo-3-phenylpropan-2-yl)-4-(4-phenyl-1H-pyrazol-1-yl)thiazole-5-carboxamide]
13 | < 3 | < 3 | < 3 | O=C[C@H](Cc1ccccc1)NC(=O)c1scnc1-n1ncc2ccccc21 [Compound 22, (S)-4-(1H-indazol-1-yl)-N-(1-oxo-3-phenylpropan-2-yl)thiazole-5-carboxamide]
14 | < 3 | < 3 | < 3 | O=C[C@H](Cc1ccccc1)NC(=O)c1cncn1-c1nc2ccccc2s1 [Compound 29, (S)-1-(benzo[d]thiazol-2-yl)-N-(1-oxo-3-phenylpropan-2-yl)-1H-imidazole-5-carboxamide]
15 | < 3 | < 3 | < 3 | O=C[C@H](Cc1ccccc1)NC(=O)c1cncn1-c1ccccn1 [Compound 31, (S)—N-(1-oxo-3-phenylpropan-2-yl)-1-(pyridin-2-yl)-1H-imidazole-5-carboxamide]
16 | < 3 | < 3 | < 3 | O=C[C@H](Cc1ccccc1)NC(=O)c1cncn1-c1ccn(-c2ccccc2)n1 [Compound 34, (S)—N-(1-oxo-3-phenylpropan-2-yl)-1-(1-phenyl-1H-pyrazol-3-yl)-1H-imidazole-5-carboxamide]
17 | < 3 | < 3 | < 3 | Cc1noc(-c2ccccc2)c1C(=O)N[C@@H](CC(C)C)C(=O)C(N)=O [Compound 35, (S)—N-(1-amino-5-methyl-1,2-dioxohexan-3-yl)-3-methyl-5-phenylisoxazole-4-carboxamide]
18 | < 3 | < 3 | < 3 | NC(=O)C(=O)[C@H](Cc1ccccc1)NC(=O)c1scnc1-n1cc2ccccc2n1 [Compound 37, (S)—N-(4-amino-3,4-dioxo-1-phenylbutan-2-yl)-4-(2H-indazol-2-yl)thiazole-5-carboxamide]
19 | < 3 | < 3 | < 3 | Cc1cc(C(=O)N[C@@H](Cc2ccccc2)C(=O)C(N)=O)n(-c2cccc3ccccc23)n1 [Compound 38, (S)—N-(4-amino-3,4-dioxo-1-phenylbutan-2-yl)-3-methyl-1-(naphthalen-1-yl)-1H-pyrazole-5-carboxamide]
